Assay results taken from the supplement of paper PMC5908809.

Experiments:
KAI3 (IL-2 2.5 ng/mL) [1] = test: percent inhibition of viability; higher = more inhibition; conditions: 72 h
[2] = test system: normal primary NK cells, pool 2 (3 donors) (IL-2 2.5 ng/mL); test: as above; conditions: 72 h
[3] = test system: normal primary NK cells, pool 1 (3 donors), resting (IL-2 0 ng/mL); test: as above; conditions: 72 h
IMC-1 (IL-2 20 ng/mL) [4] = test: as above; conditions: 72 h
NK-YS (IL-2 2.5 ng/mL) [5] = test: as above; conditions: 72 h
NK-92 (IL-2 2.5 ng/mL) [6] = test: as above; conditions: 72 h
[7] = test system: normal primary NK cells, pool 3 (3 donors) (IL-2 2.5 ng/mL); test: as above; conditions: 72 h
DERL-7 (IL-2 2.5 ng/mL) [8] = test: as above; conditions: 72 h
[9] = test system: normal primary NK cells, pool 1 (3 donors) (IL-2 2.5 ng/mL); test: as above; conditions: 72 h
NKL (IL-2 2.5 ng/mL) [10] = test: as above; conditions: 72 h
YT (IL-2 2.5 ng/mL) [11] = test: as above; conditions: 72 h
SNK-6 (IL-2 2.5 ng/mL) [12] = test: as above; conditions: 72 h
KHYG-1 (IL-2 2.5 ng/mL) [13] = test: as above; conditions: 72 h
[14] = test system: normal NK cells expanded with K562-aAPC; test: as above; conditions: 72 h, IL-2 2.5 ng/mL
Protocol: (§1)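 Drug sensitivity and resistance testing on K562-aAPC-expanded normal NK cells: 5 concentrations (10-fold steps over a 10,000-fold range), 72 h at 37 °C, viability by CellTiter-Glo normalised to DMSO and benzethonium chloride controls; DSS from the fitted curve.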

KAI3 (IL-2 2.5 ng/mL) [15] = test: drug sensitivity score (DSS) (DSS units); higher = more sensitive; extreme values may be limits of the assay; conditions: 72 h
[16] = test system: normal primary NK cells, pool 2 (3 donors) (IL-2 2.5 ng/mL); test: as above; conditions: 72 h
[17] = test system: normal primary NK cells, pool 1 (3 donors), resting (IL-2 0 ng/mL); test: as above; conditions: 72 h
IMC-1 (IL-2 20 ng/mL) [18] = test: as above; conditions: 72 h
NK-YS (IL-2 2.5 ng/mL) [19] = test: as above; conditions: 72 h
NK-92 (IL-2 2.5 ng/mL) [20] = test: as above; conditions: 72 h
[21] = test system: normal primary NK cells, pool 3 (3 donors) (IL-2 2.5 ng/mL); test: as above; conditions: 72 h
DERL-7 (IL-2 2.5 ng/mL) [22] = test: as above; conditions: 72 h
[23] = test system: normal primary NK cells, pool 1 (3 donors) (IL-2 2.5 ng/mL); test: as above; conditions: 72 h
NKL (IL-2 2.5 ng/mL) [24] = test: as above; conditions: 72 h
YT (IL-2 2.5 ng/mL) [25] = test: as above; conditions: 72 h
SNK-6 (IL-2 2.5 ng/mL) [26] = test: as above; conditions: 72 h
KHYG-1 (IL-2 2.5 ng/mL) [27] = test: as above; conditions: 72 h
[28] = test system: normal NK cells expanded with K562-aAPC; test: as above; conditions: 72 h; IL-2 2.5 ng/mL
Protocol: as §1

CC[C@H](NC(=O)[C@H](C)NC)C(=O)N1C[C@@H](O)C[C@H]1Cc1c(-c2[nH]c3cc(F)ccc3c2C[C@@H]2C[C@H](O)CN2C(=O)[C@H](CC)NC(=O)[C@H](C)NC)[nH]c2cc(F)ccc12 [Birinapant] (max concentration tested 1000 nM)
percent inhibition of viability [%]
Conditions	0.1 nM	1 nM	10 nM	100 nM	1000 nM
DERL-7 (IL-2 2.5 ng/mL) [8]	7.8	5.54	23.2	43.1	46.6
IMC-1 (IL-2 20 ng/mL) [4]	-3.47	1.41	-0.22	1.34	45.6
KAI3 (IL-2 2.5 ng/mL) [1]	1.71	-5.41	-0.72	9.21	15.7
KHYG-1 (IL-2 2.5 ng/mL) [13]	-2.97	-5.19	-7.39	-1.77	17.7
NK-92 (IL-2 2.5 ng/mL) [6]	-4.58	-12.3	5.84	11.1	31
NK-YS (IL-2 2.5 ng/mL) [5]	-2.88	-9.14	-8.38	-5.45	-8.45
NKL (IL-2 2.5 ng/mL) [10]	5.63	0.8	3.21	19.2	32.2
SNK-6 (IL-2 2.5 ng/mL) [12]	-1.62	-1.64	-7.31	-10.8	-16.1
YT (IL-2 2.5 ng/mL) [11]	1.52	-1.94	2.55	4.56	2.39
[2]	-6.05	-7.14	-11.2	2.7	53.1
[3]	-23.1	-28.9	-10.4	-2.86	73.8
[7]	-4.73	-7.57	-8.06	-3.61	38.2
[9]	-9.47	-11.8	3.46	0.49	69.2
[14]	-2.92	-0.28	2.8	10.2	38.9

Conditions	drug sensitivity score
DERL-7 (IL-2 2.5 ng/mL) [22]	10.5
IMC-1 (IL-2 20 ng/mL) [18]	2.52
KAI3 (IL-2 2.5 ng/mL) [15]	1
KHYG-1 (IL-2 2.5 ng/mL) [27]	0.34
NK-92 (IL-2 2.5 ng/mL) [20]	2.35
NK-YS (IL-2 2.5 ng/mL) [19]	0
NKL (IL-2 2.5 ng/mL) [24]	3.5
SNK-6 (IL-2 2.5 ng/mL) [26]	0
YT (IL-2 2.5 ng/mL) [25]	0
[16]	3.2
[17]	3.83
[21]	1.6
[23]	3.88
[28]	3.47

CN1CCC(COc2cnc(-c3cccc(Cn4nc(-c5cccc(C#N)c5)ccc4=O)c3)nc2)CC1 (max concentration tested 1000 nM)
percent inhibition of viability [%]
Conditions	0.1 nM	1 nM	10 nM	100 nM	1000 nM
DERL-7 (IL-2 2.5 ng/mL) [8]	-4.25	-4.18	3.15	4.81	39.5
IMC-1 (IL-2 20 ng/mL) [4]	-6.71	-2.19	-0.81	-1.98	-3.26
KAI3 (IL-2 2.5 ng/mL) [1]	-0.84	-8.6	-8.84	-7.75	-3.69
KHYG-1 (IL-2 2.5 ng/mL) [13]	0.03	-2.13	-6.37	1.52	15.3
NK-92 (IL-2 2.5 ng/mL) [6]	-7.1	-4.45	1.23	-11.4	6.42
NK-YS (IL-2 2.5 ng/mL) [5]	-1.64	-6.91	-7.12	-5.26	-5.69
NKL (IL-2 2.5 ng/mL) [10]	4.34	-14.9	-8.56	-9.54	20.4
SNK-6 (IL-2 2.5 ng/mL) [12]	10.8	3.77	-9.85	14	13.7
YT (IL-2 2.5 ng/mL) [11]	4	0.64	-1.46	-0.52	-0.42
[2]	-17.1	4.11	-9.87	-10	-13.3
[3]	-5.12	-27.4	-19.6	3.81	3.64
[7]	-8.96	-8.97	-7.75	-16	-13.7
[9]	-7	-6.88	-13.8	1.64	4.06
[14]	-4.81	-10.8	-1.01	-5.56	4.27

Conditions	drug sensitivity score
DERL-7 (IL-2 2.5 ng/mL) [22]	2.76
IMC-1 (IL-2 20 ng/mL) [18]	0
KAI3 (IL-2 2.5 ng/mL) [15]	0
KHYG-1 (IL-2 2.5 ng/mL) [27]	0.39
NK-92 (IL-2 2.5 ng/mL) [20]	0
NK-YS (IL-2 2.5 ng/mL) [19]	0
NKL (IL-2 2.5 ng/mL) [24]	0.35
SNK-6 (IL-2 2.5 ng/mL) [26]	1.09
YT (IL-2 2.5 ng/mL) [25]	0
[16]	0
[17]	0
[21]	0
[23]	0
[28]	0

CS(=O)(=O)c1ccc(-c2cnc(N)c(C(=O)Nc3ccccc3)n2)cc1 [VE-821] (max concentration tested 10000 nM)
percent inhibition of viability [%]
Conditions	1 nM	10 nM	100 nM	1000 nM	10000 nM
DERL-7 (IL-2 2.5 ng/mL) [8]	4.33	7.29	1.29	12.9	50.9
IMC-1 (IL-2 20 ng/mL) [4]	-4.03	0.79	-1.04	4.32	67.9
KAI3 (IL-2 2.5 ng/mL) [1]	-6.99	-6.14	7.79	43.5	52
KHYG-1 (IL-2 2.5 ng/mL) [13]	-3.09	-0.84	3.42	23.8	95.3
NK-92 (IL-2 2.5 ng/mL) [6]	-13.2	-3.86	2.78	36	48
NK-YS (IL-2 2.5 ng/mL) [5]	-5.61	-3.96	4.64	25.1	40.2
NKL (IL-2 2.5 ng/mL) [10]	-16.3	-14.8	-15.7	-0.56	24.9
SNK-6 (IL-2 2.5 ng/mL) [12]	3.87	-9.33	-1.01	33.3	52.1
YT (IL-2 2.5 ng/mL) [11]	-4.34	-6.49	-4.51	4.75	9.28
[2]	-7.66	8.41	7.62	7.68	15.6
[3]	9.92	20.7	22.8	23	21.5
[7]	-3.66	1.35	5.12	0.23	15.6
[9]	-1.78	22.5	3.18	5.45	6.99
[14]	-5.95	-7.38	-2.06	18.1	32.8

Conditions	drug sensitivity score
DERL-7 (IL-2 2.5 ng/mL) [22]	4.71
IMC-1 (IL-2 20 ng/mL) [18]	4.37
KAI3 (IL-2 2.5 ng/mL) [15]	8.88
KHYG-1 (IL-2 2.5 ng/mL) [27]	8.93
NK-92 (IL-2 2.5 ng/mL) [20]	7.01
NK-YS (IL-2 2.5 ng/mL) [19]	4.96
NKL (IL-2 2.5 ng/mL) [24]	0.89
SNK-6 (IL-2 2.5 ng/mL) [26]	6.77
YT (IL-2 2.5 ng/mL) [25]	0
[16]	0.62
[17]	0
[21]	0.29
[23]	0
[28]	3.68
